The values below come from patent publication US20070066627A1, “Hydrazone derivatives for combatting harmful insects and arachnids” (priority 2004, published 2007).

In experiment [1] the test system is Cotton Aphid (aphis gossypii). Nature of the experiment: Cotton aphid test on cotton cotyledons. The experiment is classed as in vivo. The settings on record: 120 h, cotyledons dipped, after 5 days, read-out: mortality in comparison with untreated controls. The text has this: 2.2 Cotton Aphid (aphis gossypii)
(§1) The active compounds were formulated in 50:50 acetone:water and 100 ppm Kinetic® surfactant.
Cotton plants at the cotyledon stage (one plant per pot) were infested by placing a heavily infested leaf from the main colony on top of each cotyledon. The aphids were allowed to transfer to the host plant overnight, and the leaf used to transfer the aphids was removed. The cotyledons were dipped in the test solution and allowed to dry. After 5 days, mortality counts were made.

In experiment [2] the test system is Green Peach Aphid (Myzus persicae). Description: Green peach aphid test on pepper plants. It counts as in vivo. Conditions: 120 h, leaves dipped, after 5 days, read-out: mortality in comparison with untreated controls.
Excerpt: 2.3 Green Peach Aphid (Myzus persicae)
as §1
Pepper plants in the 2nd leaf-pair stage (variety ‘California Wonder’) were infested with approximately 40 laboratory-reared aphids by placing infested leaf sections on top of the test plants. The leaf sections were removed after 24 hr. The leaves of the intact plants were dipped into gradient solutions of the test compound and allowed to dry.
Test plants were maintained under fluorescent light (24 hour photoperiod) at about 25° C. and 20-40% relative humidity. Aphid mortality on the treated plants, relative to mortality on check plants, was determined after 5 days.

`CC(C=NNC(=O)c1cccs1)=Cc1cccc(F)c1` [Compound 70]: in experiment [1], the mortality (usually the percentage killed) at 300 ppm was more than 75%. On the same count and under the same terms, to `CC(C=NNC(=O)c1cc(C(C)C)on1)=Cc1ccc(F)cc1` [Compound 236] belongs more than 75%; to `CC(C=NNC(=O)c1cc(Cl)ccn1)=Cc1cccc(F)c1` [Compound 277], more than 75%; to `CCC(C=NNC(=O)c1cccc(C)n1)=Cc1cccc(F)c1F` [Compound 395], more than 75%. In the case of `CC(C=NNC(=O)c1c(F)cccc1F)=Cc1cccc(F)c1` [Compound 207], in experiment [1], the mortality at 300 ppm was more than 75%. In the case of `CC(C=NNC(=O)c1sccc1C)=Cc1ccccc1` [Compound 76], the mortality at 300 ppm in experiment [2] was more than 75%.

Regarding `CC(C=NNC(=O)c1cccc(Cl)n1)=Cc1cccc(F)c1` [Compound 397], the mortality at 300 ppm in experiment [2] is more than 75%. Regarding `CC(C=NNC(=O)c1ccc(F)cc1F)=Cc1ccc(F)cc1` [Compound 319], the mortality at 300 ppm in experiment [1] is more than 75%. On to `CC(C=NNC(=O)c1ccco1)=Cc1ccc(Cl)cc1` [Compound 128], for which, in experiment [2], the mortality at 300 ppm was more than 75%. On the same count and under the same terms, to `CCC(C=NNC(=O)c1ccccn1)=Cc1ccc(F)cc1` [Compound 393] belongs more than 75%; to `CC(C=NNC(=O)c1ccncc1)=Cc1cccc(F)c1` [Compound 173], more than 75%. In the case of `CC(C=NNC(=O)c1ccco1)=Cc1cccc(F)c1` [Compound 131], the mortality at 300 ppm in experiment [1] is more than 75%. With `CC(C=NNC(=O)c1ccc(F)cc1F)=Cc1cccc(F)c1` [Compound 320], the mortality at 300 ppm in experiment [2] was more than 75%. With `CCC(C=NNC(=O)c1cccc(C)n1)=Cc1ccccc1F` [Compound 394], the mortality at 300 ppm in experiment [1] is more than 75%. With `CCC(C=NNC(=O)c1cccc(F)c1)=Cc1ccccc1` [Compound 200], in experiment [2], the mortality at 300 ppm is more than 75%. As for `CC(C=NNC(=O)c1cnccn1)=Cc1ccccc1F` [Compound 314], the mortality at 300 ppm in experiment [1] was more than 75%. Same read-out and setting: to `CC(C=NNC(=O)c1ccccc1)=Cc1ccc(F)cc1` [Compound 181] belongs more than 75%. For the compound `O=C(NN=CC(Cl)=Cc1ccccc1)c1ccccc1F` [Compound 195], the mortality at 300 ppm in experiment [2] was more than 75%. With `COc1ccc(CC(=O)NN=CC(C)=Cc2ccc(F)cc2)cc1OC` [Compound 20], the mortality at 300 ppm in experiment [2] was more than 75%. For `CC(C=NNC(=O)c1cc(C(C)C)no1)=Cc1cccc(F)c1` [Compound 240], in experiment [1], the mortality at 300 ppm was more than 75%. In the case of `CC(C=NNC(=O)c1cccc(F)n1)=Cc1ccccc1` [Compound 400], the mortality at 300 ppm in experiment [2] is more than 75%. Consider `CC(C=NNC(=O)c1cc(F)ccc1F)=Cc1cccc(F)c1` [Compound 203], for which, in experiment [1], the mortality at 300 ppm was more than 75%. `COc1ccccc1C(=O)NN=CC(C)=Cc1ccc(F)cc1` [Compound 186]: in experiment [2], the mortality at 300 ppm is more than 75%.

As to `CC(C=NNC(=O)Cc1ccccc1)=Cc1cccc(F)c1` [Compound 19], in experiment [2], the mortality at 300 ppm is more than 75%. Consider `CC(C=NNC(=O)c1cc(C(C)C)on1)=Cc1cccc(F)c1` [Compound 237], for which the mortality at 300 ppm in experiment [2] was more than 75%.

Consider `O=C(NN=CC(Cl)=Cc1ccccc1)c1ccco1` [Compound 120], for which the mortality at 300 ppm in experiment [1] is more than 75%. On the same count and under the same terms, to `CC(C=NNC(=O)c1ccco1)=Cc1ccccc1` [Compound 121] belongs more than 75%. On to `CC(C=NNC(=O)c1ccc(F)cc1F)=Cc1ccccc1F` [Compound 321], for which the mortality at 300 ppm in experiment [2] was more than 75%.

In the case of `CC(C=NNC(=O)c1cc(C)nn1C)=Cc1ccccc1` [Compound 152], the mortality at 300 ppm in experiment [2] was more than 75%. As to `O=C(NN=CC=Cc1ccccc1F)c1ccco1` [Compound 130], in experiment [1], the mortality at 300 ppm was more than 75%. Same read-out and setting: under `CC(C=NNC(=O)c1ncccc1F)=Cc1ccc(F)cc1` [Compound 399] stands more than 75%. Take `CC(C=NNC(=O)c1cc(C(C)C)on1)=Cc1ccccc1` [Compound 235]: the mortality at 300 ppm in experiment [2] was more than 75%. With `CC(C=NNC(=O)c1ncccc1F)=Cc1ccccc1` [Compound 398], the mortality at 300 ppm in experiment [1] is more than 75%. Same read-out and setting: under `CCC(C=NNC(=O)c1ccccn1)=Cc1ccccc1F` [Compound 392] stands more than 75%.
